Values quoted from earlier work, collected in US20130316464A1, “ANALYTE […] AND METHOD” (priority 2010, published 2013).

System: erythrocytes
Conditions: whole blood

SMILES: CC(C)c1cccc(C(C)C)c1O [propofol, 2,6-diisopropylphenol]
- proportion of the propofol partitioned into / bound to blood cells (erythrocytes): 30-40%
